The test system of assay [1] is C. elegans. As to the kind of experiment: Worm survival assay on solid agar plate. Type of assay: in vivo. Conditions: thymol 50 M (so in the source), solid agar plates, n=60 per group, vs vehicle (DMSO 1%), log rank test. The protocol:
C. elegans strains were cultured at 20° C. on nematode growth media agar plates seeded with E. coli strain OP50. Thymol was dissolved in DMSO and added at the indicated concentrations just before pouring the plates. Worms were exposed to compounds during the full life from eggs until death. To ensure a permanent exposure to the compound, plates were changed twice a week. The control population was treated with the corresponding concentration of DMSO at 1%. For lifespan measurements, parental F0 L4 worms were grown to reach adulthood and lay eggs on the treatment plates. The derived F1 worms were therefore exposed to compounds during the full life from eggs until death. Adults were daily scored manually as dead or alive. A worm was considered dead if it was not moving spontaneously and it was not responding to a touch on the head. The control population was treated with the corresponding concentration of DMSO at 1%.

For assay [2], the system named is C. elegans. As to the kind of experiment: Worm survival assay in microfluidics. The class given is in vivo. Particulars: thymol 50 μM, worms treated in microfluidics (conditions mimicking IF), vs vehicle, log rank test. Here is the method:
A worm suspension is first injected into a microfluidic device. The geometry of the device is optimized for retaining inside the worm culture chamber only adult worms by simply selecting the correct flow rate for the sample injection. Upon isolation of a defined worm population inside the chamber, worms are cultured and treated on-chip with thymol at controlled temperature of 20° C. Worm culture is maintained in the chamber by the perfusion of E. coli. The microfluidic chip is integrated onto an inverted microscope integrated with a camera that continuously records videos (every 10 hours). Images are longitudinally analyzed by different parameters that include readouts of body bends frequency, velocity, curvature and amplitude of the movement at the head, tail and middle of the body, which automatically provide information about worms health span and vitality.

On to `Cc1ccc(C(C)C)c(O)c1` [thymol], for which the effect on lifespan result with C. elegans [1] was “no significant effects on lifespan”; in the assay with C. elegans [2], “increases lifespan”.

Values taken from patent US20240415786A1, “COMPOSITIONS AND METHODS USING AN AUTOPHAGY INDUCER TO ENHANCE INTERMITTENT FASTING” (SOCIETE DES PRODUITS NESTLE S.A., priority 2021, published 2024).
